Data: ChEMBL document CHEMBL1155480, “Selective one-pot multicomponent synthesis and anti-tubercular evaluation of 5-(aryl/cyclohexylsulfanyl)-2-alkoxy-4,6-diarylnicotinonitriles” (2010)
Values after ≈ are worked out from the molar mass of the structure shown.

These compounds were tested on Mycobacterium tuberculosis (assay: Antimycobacterial activity against Mycobacterium tuberculosis H37Rv by agar dilution method).
Type: functional
With `CCOc1nc(-c2ccc([N+](=O)[O-])cc2)c(SC2CCCCC2)c(-c2ccccc2)c1C#N` the MIC was 6.8 µM (≈ 3.13 µg/mL). Work on `CCOc1nc(-c2ccc([N+](=O)[O-])cc2)c(SC2CCCCC2)c(-c2ccc(N(C)C)cc2)c1C#N` yielded an MIC of 12.5 µM (≈ 6.28 µg/mL). Work on `COc1nc(-c2ccc(Cl)cc2)c(Sc2ccc(Cl)cc2)c(-c2ccc(N(C)C)cc2)c1C#N` yielded an MIC of 12.4 µM (≈ 6.28 µg/mL). Work on `COc1nc(-c2ccc(Cl)cc2)c(Sc2ccc(Cl)cc2)c(-c2ccccc2)c1C#N` yielded an MIC of 27.1 µM (≈ 12.6 µg/mL). With `CCOc1nc(-c2ccc(Cl)cc2)c(Sc2ccc(OC)cc2)c(-c2ccc(N(C)C)cc2)c1C#N` the MIC was 48.5 µM (≈ 25 µg/mL). With `CCOc1nc(-c2ccc(Cl)cc2)c(Sc2ccccc2)c(-c2ccc(Cl)cc2)c1C#N` the MIC was 26.2 µM (≈ 12.5 µg/mL). `COc1nc(-c2ccc(Cl)cc2)c(SC2CCCCC2)c(-c2ccc(Cl)cc2)c1C#N` gave an MIC of 13.3 µM (≈ 6.24 µg/mL). `CC[C@@H](CO)NCCN[C@@H](CC)CO` [ETHAMBUTOL] gave an MIC of 7.6 µM (≈ 1.55 µg/mL). `NC(=O)c1cnccn1` [PYRAZINAMIDE] was tested, and the MIC was 50.8 µM (≈ 6.25 µg/mL). Work on `COc1ccc(-c2c(C#N)c(OC)nc(-c3ccc(Cl)cc3)c2SC2CCCCC2)cc1` yielded an MIC of 26.9 µM (≈ 12.5 µg/mL). In the case of `CCOc1nc(-c2ccc(Br)cc2)c(Sc2ccc(Cl)cc2)c(-c2ccc(N(C)C)cc2)c1C#N`, the MIC is reported as 5.6 µM (≈ 3.16 µg/mL). For `CCOc1nc(-c2ccc(Cl)cc2)c(Sc2ccc(C)cc2)c(-c2ccc(Cl)cc2)c1C#N`, the MIC was 25.5 µM (≈ 12.5 µg/mL). With `CCOc1nc(-c2ccc(C)cc2)c(SC2CCCCC2)c(-c2ccc(N(C)C)cc2)c1C#N` the MIC was 26.5 µM (≈ 12.5 µg/mL). `COc1nc(-c2ccccc2)c(Sc2ccc(Cl)cc2)c(-c2ccc(N(C)C)cc2)c1C#N` showed an MIC of 26.5 µM (≈ 12.5 µg/mL). `COc1nc(-c2ccccc2)c(Sc2ccc(Cl)cc2)c(-c2ccc(Cl)cc2)c1C#N` was tested, and the MIC was 27 µM (≈ 12.5 µg/mL). `CCOc1nc(-c2ccc(Cl)cc2)c(SC2CCCCC2)c(-c2ccc(N(C)C)cc2)c1C#N` was tested, and the MIC was 25.4 µM (≈ 12.5 µg/mL). Work on `COc1nc(-c2ccc(Cl)cc2)c(Sc2ccc(Cl)cc2)c(-c2ccc(Cl)cc2)c1C#N` yielded an MIC of 3.1 µM (≈ 1.54 µg/mL). Compound `CCOc1nc(-c2ccc(Cl)cc2)c(Sc2ccc(C)cc2)c(-c2ccc(OC)cc2)c1C#N` has an MIC of 51.3 µM (≈ 25 µg/mL). In the case of `COc1nc(-c2ccc(Cl)cc2)c(SC2CCCCC2)c(-c2ccccc2Cl)c1C#N`, the MIC is reported as 13.3 µM (≈ 6.24 µg/mL). For `CCOc1nc(-c2ccc(OC)cc2)c(Sc2ccc(Cl)cc2)c(-c2ccc(N(C)C)cc2)c1C#N`, the MIC was 24.2 µM (≈ 12.5 µg/mL). `COc1nc(-c2ccc(Cl)cc2)c(SC2CCCCC2)c(-c2ccc(C)cc2)c1C#N` showed an MIC of 28 µM (≈ 12.6 µg/mL). `COc1nc(-c2ccc(Cl)cc2)c(SC2CCCCC2)c(-c2ccc(N(C)C)cc2)c1C#N` was tested, and the MIC was 13.1 µM (≈ 6.26 µg/mL). Compound `COc1ccc(-c2c(C#N)c(OC)nc(-c3ccc(Cl)cc3)c2Sc2ccc(Cl)cc2)cc1` has an MIC of 25.4 µM (≈ 12.5 µg/mL). In the case of `CCOc1nc(-c2ccc(Cl)cc2)c(Sc2ccc(C)cc2)c(-c2ccc(N(C)C)cc2)c1C#N`, the MIC is reported as greater than 50 µM. In the case of `CCOc1nc(-c2ccc(Cl)cc2)c(Sc2ccc(Cl)cc2)c(-c2ccccc2)c1C#N`, the MIC is reported as 13.1 µM (≈ 6.25 µg/mL). With `CCOc1nc(-c2ccc(Cl)cc2)c(Sc2ccc(C)cc2)c(-c2ccccc2)c1C#N` the MIC was 54.8 µM (≈ 25 µg/mL). With `CCOc1nc(-c2ccc(Cl)cc2)c(SC2CCCCC2)c(-c2ccccc2)c1C#N` the MIC was 27.8 µM (≈ 12.5 µg/mL). In the case of `CCOc1nc(-c2ccccc2)c(SC2CCCCC2)c(-c2ccccc2)c1C#N`, the MIC is reported as 25 µM (≈ 10.4 µg/mL). Work on `CCOc1nc(-c2ccc(Cl)cc2)c(SC2CCCCC2)c(-c2ccc(C)cc2)c1C#N` yielded an MIC of 27 µM (≈ 12.5 µg/mL). `CCOc1nc(-c2ccc(Cl)cc2)c(Sc2ccccc2)c(-c2ccc(N(C)C)cc2)c1C#N` was tested, and the MIC was greater than 51.4 µM. Work on `CCOc1nc(-c2ccc(Cl)cc2)c(SC2CCCCC2)c(-c2ccc(Cl)cc2)c1C#N` yielded an MIC of 6.5 µM (≈ 3.14 µg/mL). In the case of `NNC(=O)c1ccncc1` [ISONIAZID], the MIC is reported as 0.4 µM (≈ 0.0549 µg/mL). `COc1nc(-c2ccc(Cl)cc2)c(SC2CCCCC2)c(-c2ccccc2)c1C#N` showed an MIC of 57.6 µM (≈ 25.1 µg/mL).
